Laboratory results published in patent publication US20110224297A1, “Methods of administering prostratin and structural analogs thereof” (priority 2008, published 2011).
Like-named read-outs stand apart in the source and are kept apart here.

Key:
[1] = test system: PBMCs; settings: alone or in conjunction with other activators; cited from earlier work
[2] = Stability in PBS (phosphate buffer saline); format: physicochemical
Description: (§1) Prostratin is stable in plasma and buffer as well as in the stability formulation (see below) developed for in vivo studies in mice. Stability tests for prostratin in mouse and monkey plasma were done using two concentration (1 and 10 mg/ml) and two temperatures (Room Temperature (RT) and 37° C.). The only loss of drug occurred in mouse plasma after 24 hr incubation at 37° C. This represented only 14% decrease in parent drug peak area over this time frame. Prostratin is stable in PBS (phosphate buffer saline) at pH 2 and pH 7.

[3] = Stability of prostratin in monkey plasma; format: in vitro ADME; settings: 1 and 10 mg/ml, RT and 37° C.
Description: as §1

[4] = test system: cultured human peripheral blood lymphocytes; assay: Chromosomal aberrations in cultured human peripheral blood lymphocytes; format: cell-based
Description: The objective of this in vitro assay was to evaluate the ability of prostratin to cause structural chromosomal aberrations in cultured human lymphocytes with and without an exogenous metabolic activation system.
(§2) Dimethylsulfoxide (DMSO) was the vehicle of choice for this study. […] The stock solution and its dilutions were dosed using a dosing volume of 1% (10 μL/ml) and the vehicle control cultures were treated with 10.0 μL/ml of DMSO.
In the initial chromosomal aberrations assay, the treatment period was for 3 hours with and without metabolic activation, and cultures were harvested ˜22 hours from the initiation of treatment. Replicate cultures of human whole blood lymphocytes were incubated with test article at 23.7, 33.9, 48.4, 69.2, 98.9, 141, 202, 288, 412, 588, 840, 1200, 1720, 2450, and 3500 μg/ml with and without metabolic activation. Cultures treated with concentrations of 412, 588, 840, and 1200 μg/ml without metabolic activation and 588, 840, 1200, and 1720 μg/ml with metabolic activation were analyzed for chromosomal aberrations.
In the confirmatory chromosomal aberrations assay, the treatment period was ˜22 hours without metabolic activation and 3 hours with metabolic activation, and cultures were harvested ˜22 hours from the initiation of treatment. Replicate cultures of human whole blood lymphocytes were incubated with test article at 15.6, 31.3, 62.5, 125, 188, 250, 375, 500, 750, 1000, 1400, and 1700 μg/ml without metabolic activation and 250, 500, 1000, 1400, 1700, 2000, and 2500 μg/ml with metabolic activation. Cultures treated with concentrations of 125, 250, 500, and 1400 μg/ml without metabolic activation and 1400, 1700, 2000, and 2500 μg/ml with metabolic activation were analyzed for chromosomal aberrations.
For all treatment conditions, the vehicle and negative control cultures were within the expected range and the historical control data and the positive control cultures induced significant increases in chromosomal aberrations.

[5] = Solubility limit after dosing in culture medium; format: physicochemical; settings: plasma or biological fluid, kinetic from dmso stock, dosing volume of 1%
Description: as §2

[6] = In vitro metabolism in human liver microsomes; format: in vitro ADME
Source text: (§3) In vitro metabolism of prostratin was investigated using mouse, rat, monkey, and human liver microsomes (Gentest). […] Attempts to identify the metabolite by LC/MS/MS were unsuccessful due to the low amounts present in the reaction mixtures (FIG. 1).

[7] = Pharmacokinetics following intravenous and oral administration to rats; format: in vivo; settings: for Vd / half-life / bioavailability: male; for bioavailability: three male rats
Description: In order to find out the best route of administration and the correct concentration of prostratin, the drug was administered as an intravenous infusion over three hours as well as a single and twice oral administration to 3 groups of rats. The goal of this experiment was to find out if greater amounts of prostratin can be administered over a longer period of time. This would enable obtaining median higher concentrations in the blood for a longer period of time that would be close to effective concentration found in in vitro studies.

[8] = In vitro metabolism in monkey liver microsomes; format: in vitro ADME
Source text: as §3

[9] = test system: rhesus macaque monkeys; assay: Dose-range finding study in monkeys and determination of MTD; format: in vivo
Description: After a suitable wash-out period (15-20 days), monkeys that previously received 0.1 mg/kg, were administered a dose of 0.6 mg/kg, and those that previously received 0.4 mg/kg, were administered a second dose of 0.4 mg/kg. Blood was collected as before for clinical pathology and cytokine assay analysis. There was no mortality in this study. However both animals receiving 0.6 mg/kg prostratin required more time (2-4 times as much) to recover from Ketamine (used as a chemical restraint while weighing and dosing) after the second dosing compared with the initial doses. On day 3, all monkeys had elevated (2-3 fold) fibrinogen levels and there was evidence of dose-dependent hepatotoxicity.

[10] = all three females, 1.2-mg/kg oral dose, males 2.4 mg/kg
[11] = female Animal No. C24047, 0.8 mg/kg i.v. infusion
[12] = female Animal No. C24048, 0.8 mg/kg i.v. infusion
[13] = female Animal No. C24049, 0.8 mg/kg i.v. infusion
[14] = female Animal No. C24050, 1.2-mg/kg oral dose, males 2.4 mg/kg
[15] = female Animal No. C24055, Group 3

CC(=O)O[C@@]12C[C@@H](C)[C@@]3(O)[C@@H](C=C(CO)C[C@]4(O)C(=O)C(C)=C[C@@H]34)[C@@H]1C2(C)C [prostratin, 12-deoxyphorbol 13-acetate]
individuals on suppressive HAART whose PBMCs showed stimulated HIV-1 production [1]: 4 out of 6
stability in PBS ([2]; pH 2): stable
stability in PBS ([2]; pH 7): stable
stability in plasma [3]: stable
cells with chromosomal aberrations, polyploidy, or endoreduplication ([4]; confirmatory assay, ~22 hours without and 3 hours with metabolic activation, 125-1400 μg/ml without, 1400-2500 μg/ml with): No significant increase
cells with chromosomal aberrations, polyploidy, or endoreduplication ([4]; initial assay, 3 hours with and without metabolic activation, 412-1200 μg/ml without, 588-1720 μg/ml with): No significant increase
induction of chromosomal aberrations, overall ([4]; without and with an exogenous metabolic activation system): negative
solubility [5]: < 3.5 mg/mL
metabolism (time-dependent loss of parent compound) [6]: substantially less
mean AUC0-1.5 relative to mean value for the males [7, 10]: ~5.5 fold
mean Cmax relative to mean value for the males [7, 10]: approximately 6.2 fold
AUC0-2 relative to mean AUC0-2 for the males [7, 11]: approximately 4.2 fold
plasma concentration at approximately 2 hours relative to mean male Cmax [7, 11]: approximately 3.8 fold
AUC0-2 relative to mean AUC0-2 for the males [7, 12]: approximately 1.4 fold
plasma concentration at approximately 2 hours relative to mean male Cmax [7, 12]: approximately 1.6 fold
AUC0-3.083 relative to mean value for the males [7, 13]: ~2.6 fold
Cmax relative to mean value for the males [7, 13]: approximately 3.7 fold
AUC0-1.5 relative to mean value for the males [7, 14]: ~8.2 fold
Cmax relative to mean value for the males [7, 14]: approximately 8.9 fold
AUC0-4 relative to mean value for the males ([7]; female Animal No. C24052, 1.2-mg/kg oral dose, males 2.4 mg/kg): approximately 9.6 fold
Cmax relative to mean value for the three males ([7]; female Animal No. C24055, 1.8 mg/kg then 1.0 mg/kg oral, Group 3): approximately 6.0 fold
AUC0-1.5 relative to mean value for the three males [7, 15]: ~5.9 fold
AUC0-4 relative to mean value for the three males [7, 15]: ~8.2 fold
AUC0-10 relative to mean AUC0-10 for the males ([7]; last female of Group 2, 1.2-mg/kg oral dose, males 2.4 mg/kg): approximately 6.1 fold
increase in exposure (mean AUC0-10) of 1.8-mg/kg BID versus single 2.4-mg/kg oral dose ([7]; male rats, Groups 3 and 2): approximately 1.5 fold
Vd ([7]; rat, plasma, iv, 0.8 mg/kg, male rats, 0.8 mg/kg i.v. infusion, read-out: mean Vss): 2.22 L/kg
Vd ([7]; rat, plasma, iv, 0.8 mg/kg, male rats, 0.8 mg/kg i.v. infusion, read-out: mean Vz): 6.41 L/kg
half-life ([7]; rat, plasma, iv, 0.8 mg/kg, male rats, after 3-hour intravenous infusion 0.8 mg/kg, read-out: mean t1/2 (converted)): 2.49 h
half-life ([7]; rat, plasma, po, 1.8 mg/kg, male Animal No. C24046, Group 3, 1.8 mg/kg BID oral, read-out: t1/2 (converted)): 7.47 h
half-life ([7]; rat, plasma, po, 1.8 mg/kg, male rats, 1.8 mg/kg BID oral, after the second dose, read-out: mean t1/2 (converted)): 4.07 h
half-life ([7]; rat, plasma, po, 2.4 mg/kg, male rats, single 2.4-mg/kg oral dose, read-out: mean t1/2 (converted)): 2.08 h
bioavailability ([7]; rat, plasma, po, 2.4 mg/kg, single 2.4-mg/kg oral dose, read-out: Bioavailability (% F), mean): 13.3%
bioavailability ([7]; rat, plasma, po, 2.4 mg/kg, single 2.4-mg/kg oral dose, read-out: Bioavailability (% F), range): 7.7 to 23.1%
clearance ([7]; rat, plasma, iv, male rats, 0.8 mg/kg i.v. infusion, read-out: mean CL (converted)): 2.05 L/h/kg
concentration at 4 h ([7]; rat, plasma, male rats, 1.8 mg/kg oral, Group 3, read-out: mean plasma concentration just prior to the second oral dose at 4 hours): 0.0179 µg/mL
Cmax ([7]; rat, plasma, male rats, 0.8-mg/kg intravenous infusion over 3 hours): 0.159 µg/mL
Cmax ([7]; rat, plasma, male rats, 1.8-mg/kg oral doses BID, following the second dose): 0.0551 µg/mL
Tmax ([7]; rat, plasma, male rats, 1.8-mg/kg oral doses BID, read-out: time at which Cmax was observed): 0.25 to 0.5 h
Cmax ([7]; rat, plasma, male rats, single 2.4-mg/kg oral dose): 0.0497 µg/mL
concentration at 4 h ([7]; rat, plasma, male rats, single 2.4-mg/kg oral dose, Group 2, read-out: mean plasma concentration at 4 hours postdose): 0.0115 µg/mL
metabolism (time-dependent loss of parent compound) [8]: greatest
time to recover from Ketamine compared with the initial doses ([9]; 0.6 mg/kg): 2-4 times
increase in level of ALT and AST over baseline ([9]; 0.6 mg/kg dose group, day 3): 25-50 fold
time after which plasma drug level is undetectable ([9]; 0.1 and 0.4 mg/kg i.v. bolus, day 1): 4 h
reversibility of toxicities ([9]; all clinical pathology measurements normal by day 15): reversible
elevation of fibrinogen levels ([9]; day 3, all monkeys): 2-3 fold
CK and LD levels ([9]; day 3, dose-dependent): increases
level of IL-6 ([9]; female monkeys, 0.4 and 0.6 mg/kg): increase
mortality ([9]; i.v. bolus 0.1, 0.4 and 0.6 mg/kg): no mortality
toxicity at the initial doses ([9]; single intravenous bolus 0.1 or 0.4 mg/kg): absence of toxicity
